Assay results reported in US9605003B2, “Heterocyclic compounds and uses thereof” (Infinity Pharmaceuticals, Inc., priority 2011, dated 2017).
pEC50, pIC50: −log10 of the molar value.

Columns and labels:
PI3Kδ = biological target: T1, PI3Kδ (Homo sapiens, UniProt O00329); assay: PI3 Kinase HTRF assay, PI3Kδ; assay type: biochemical; conditions: Between 1 μM and 10 μM; read-out: PI3K δ IC50
T1 construct: purchased Millipore Corporation 14-604-K
Text: (§1) A PI3-Kinase HTRF® assay kit (cat No. 33-016) purchased from Millipore Corporation was used to screen compounds provided herein. This assay used specific, high affinity binding of the GRP1 pleckstrin homology (PH) domain to PIP3, the product of a Class 1A or 1B PI3 Kinase acting on its physiological substrate PIP2. During the detection phase of the assay, a complex was generated between the GST-tagged PH domain and biotinylated short chain PIP3. The biotinylated PIP3 and the GST-tagged PH domain recruited fluorophores (Streptavidin-Allophycocyanin and Europium-labeled anti-GST respectively) to form the fluorescence resonance energy transfer (FRET) architecture, generating a stable time-resolved FRET signal. The FRET complex was disrupted in a competitive manner by non-biotinylated PIP3, a product formed in the PI3 Kinase assay.
(§2) PI3 Kinase α, β, γ and δ activity was assayed using the PI3 Kinase HTRF® assay kit (catalogue No. 33-016) purchased from Millipore Corporation. Purified recombinant PI3Kα (catalogue No. 14-602-K), PI3Kβ (catalogue No. 14-603-K), PI3Kγ (catalogue No. 14-558-K) and PI3Kδ (catalogue No. 14-604-K) were obtained from Millipore Corporation. Purified recombinant PI3K enzyme was used to catalyze the phosphorylation of phosphatidylinositol 4,5-bisphosphate (PIP2 at 10 μM) to phosphatidylinositol 3,4,5-trisphosphate (PIP3) in the presence of 10 μM ATP. The assay was carried out in 384-well format and detected using a Perkin Elmer EnVision Xcite Multilabel Reader. Emission ratios were converted into percent inhibitions and imported into GraphPad Prism software. The concentration necessary to achieve inhibition of enzyme activity by 50% (IC50) was calculated using concentrations ranging from 20 μM to 0.1 nM (12-point curve). IC50 values were determined using a nonlinear regression model available in GraphPad Prism 5.

PI3Kγ = biological target: T2, PI3Kγ (Homo sapiens, UniProt P48736); assay: PI3 Kinase HTRF assay, PI3Kγ; assay type: biochemical; conditions: Between 1 μM and 10 μM; read-out: PI3K γ IC50
T2 construct: purchased Millipore Corporation 14-558-K
Text: as §1, §2

Balb/c splenic B cells = assay: B cell activation and proliferation assay (Alamar Blue); assay type: cell-based; conditions: Mus musculus
Experimental: The ability of one or more subject compounds to inhibit B cell activitation and proliferation is determined according to standard procedures known in the art. For example, an in vitro cellular proliferation assay is established that measures the metabolic activity of live cells. The assay is performed in a 96 well microtiter plate using Alamar Blue reduction. Balb/c splenic B cells are purified over a Ficoll-Paque™ PLUS gradient followed by magnetic cell separation using a MACS B cell Isolation Kit (Miletenyi). Cells are plated in 90 μl at 50,000 cells/well in B Cell Media (RPMI+10% FBS+Penn/Strep+50 μM bME+5 mM HEPES). A compound provided herein is diluted in B Cell Media and added in a 10 μl volume. Plates are incubated for 30 min at 37° C. and 5% CO2 (0.2% DMSO final concentration). A 50 μl B cell stimulation cocktail is then added containing either 10 μg/ml LPS or 5 μg/ml F(ab′)2 Donkey anti-mouse IgM plus 2 ng/ml recombinant mouse IL4 in B Cell Media. Plates are incubated for 72 hours at 37° C. and 5% CO2. A volume of 15 μL of Alamar Blue reagent is added to each well and plates are incubated for 5 hours at 37° C. and 5% CO2. Alamar Blue fluoresce is read at 560Ex/590Em, and IC50 or EC50 values are calculated using GraphPad Prism 5.

[1] = tested on: phospho-AKT in RAW 264.7 cells; assay: PI3Kγ selective cellular assay, phospho-AKT in C5a stimulated RAW 264.7 cells; assay type: cell-based; conditions: Mus musculus, RAW264.7, RAW 264.7 cell model
Text: A compound's ability in selectively inhibiting PI3Kγ can be assessed using RAW264.7 macrophages. Briefly, serum-starved PAW264.7 cells are stimulated with a known GPCR agonist C5a. (See, e.g., Camps et al., Nature Medicine (2005) 11(9): 936-943). Cells can be treated with test compounds prior to, simultaneously with, or subsequent to the stimulation by C5a. RAW 264.7 cells respond to the complement component fragment C5a through activation of the C5a receptor, and the C5a receptor activates macrophages and induces cell migration. Test compounds' ability to inhibit C5a-mediated AKT phosphorylation is indicative of selective inhibition of PI3Kγ. Thus, by monitoring the reduction of phospho-AKT in stimulated RAW 264.7 cells (using for example, phospho-AKT antibodies), a compound's potential efficacy in selectively inhibiting PI3Kγ can be assessed.
Certain compounds provided herein (e.g., Compounds 5, 38, 103, 105, 106, 107, 108, and 109) were tested in RAW 264.7 cell model using procedures as described above.

PI3Kβ = biological target: T3, PI3Kβ (Homo sapiens, UniProt P42338); assay: PI3 Kinase HTRF assay, PI3Kβ; assay type: biochemical; conditions: Between 1 μM and 10 μM; read-out: PI3K β IC50
T3 construct: purchased Millipore Corporation 14-603-K
Text: as §1, §2

[2] = tested on: phospho-AKT in SKOV-3 cells; assay: PI3Kα selective cellular assay, phospho-AKT in SKOV-3 cells; assay type: cell-based; conditions: Homo sapiens, SK-OV-3, SKOV-3 cell model
Text: A compound's ability in selectively inhibiting PI3Kα can be assessed using SKOV-3 cells, i.e., human ovarian carcinoma cell line. Briefly, SKOV-3 cells, in which mutant PI3Kα is constitutively active, can be treated with test compounds. Test compounds' ability to inhibit AKT phosphorylation in SKOV-3 cells, therefore, is indicative of selective inhibition of PI3Kα. Thus, by monitoring the reduction of phospho-AKT in SKOV-3 cells (using for example, phospho-AKT antibodies), a compound's potential efficacy in selectively inhibiting PI3Kα can be assessed.
Certain compounds provided herein (e.g., Compounds 5, 38, 103, and 106) were tested in SKOV-3 cell model using procedures as described above.

[3] = tested on: phospho-AKT in 786-O cells; assay: PI3Kβ selective cellular assay, phospho-AKT in 786-O cells; assay type: cell-based; conditions: Homo sapiens, 786-0, 786-O cell model
Text: A compound's ability in selectively inhibiting PI3Kβ can be assessed using 786-O cells, i.e., human kidney carcinoma cell line. Briefly, 786-O cells, in which PI3Kβ is constitutively active, can be treated with test compounds. Test compounds' ability to inhibit AKT phosphorylation in 786-O cells, therefore, is indicative of selective inhibition of PI3Kβ. Thus, by monitoring the reduction of phospho-AKT in 786-O cells (using for example, phospho-AKT antibodies), a compound's potential efficacy in selectively inhibiting PI3Kβ can be assessed.
Certain compounds provided herein (e.g., Compounds 5, 38, 103, and 106) were tested in 786-O cell model using procedures as described above.

PI3Kα = biological target: T4, PI3Kα (Homo sapiens, UniProt P42336); assay: PI3 Kinase HTRF assay, PI3Kα; assay type: biochemical; conditions: Between 1 μM and 10 μM; read-out: PI3K α IC50
T4 construct: purchased Millipore Corporation 14-602-K
Text: as §1, §2

[4] = tested on: phospho-AKT in RAJI cells; assay: PI3Kδ selective cellular assay, phospho-AKT in anti-IgM stimulated RAJI cells; assay type: cell-based; conditions: Homo sapiens; RAJI cell model
Text: A compound's ability in selectively inhibiting PI3Kδ can be assessed using RAJI cells, i.e., B lymphocyte cells derived from lymphoma patients. Briefly, serum-starved RAJI cells are stimulated with anti-human IgM, thereby causing signaling through the B-cell receptors, as described in, for example, He et al., Leukemia Research (2009) 33: 798-802. B-cell receptor signaling is important for the activation, differentiation, and survival of B cells and certain B-cell derived cancers. Reduction of phospho-AKT is indicative of compounds that may inhibit B-cell proliferation and function in certain diseases. By monitoring the reduction of phospho-AKT in stimulated RAJI cells (using for example, phospho-AKT antibodies), a compound's potential efficacy in selectively inhibiting PI3Kδ can be assessed.
Certain compounds provided herein (e.g., Compounds 5, 38, 103, 105, 106, 107, 108, and 109) were tested in RAJI cell model using procedures as described above.

[5] = PBS pH 7.4, 37° C., 24 hours, 5 μM; cited from earlier work
B6.Sle1z.Sle3z model = conditions: cited from earlier work
[6] = human plasma, 5 μM; cited from earlier work
NZB/W model = conditions: prophylactic and therapeutic model; cited from earlier work
[7] = range between 100 nM and 1 μM (bounds carry own units)

T4 sequence (P42336 whole entry): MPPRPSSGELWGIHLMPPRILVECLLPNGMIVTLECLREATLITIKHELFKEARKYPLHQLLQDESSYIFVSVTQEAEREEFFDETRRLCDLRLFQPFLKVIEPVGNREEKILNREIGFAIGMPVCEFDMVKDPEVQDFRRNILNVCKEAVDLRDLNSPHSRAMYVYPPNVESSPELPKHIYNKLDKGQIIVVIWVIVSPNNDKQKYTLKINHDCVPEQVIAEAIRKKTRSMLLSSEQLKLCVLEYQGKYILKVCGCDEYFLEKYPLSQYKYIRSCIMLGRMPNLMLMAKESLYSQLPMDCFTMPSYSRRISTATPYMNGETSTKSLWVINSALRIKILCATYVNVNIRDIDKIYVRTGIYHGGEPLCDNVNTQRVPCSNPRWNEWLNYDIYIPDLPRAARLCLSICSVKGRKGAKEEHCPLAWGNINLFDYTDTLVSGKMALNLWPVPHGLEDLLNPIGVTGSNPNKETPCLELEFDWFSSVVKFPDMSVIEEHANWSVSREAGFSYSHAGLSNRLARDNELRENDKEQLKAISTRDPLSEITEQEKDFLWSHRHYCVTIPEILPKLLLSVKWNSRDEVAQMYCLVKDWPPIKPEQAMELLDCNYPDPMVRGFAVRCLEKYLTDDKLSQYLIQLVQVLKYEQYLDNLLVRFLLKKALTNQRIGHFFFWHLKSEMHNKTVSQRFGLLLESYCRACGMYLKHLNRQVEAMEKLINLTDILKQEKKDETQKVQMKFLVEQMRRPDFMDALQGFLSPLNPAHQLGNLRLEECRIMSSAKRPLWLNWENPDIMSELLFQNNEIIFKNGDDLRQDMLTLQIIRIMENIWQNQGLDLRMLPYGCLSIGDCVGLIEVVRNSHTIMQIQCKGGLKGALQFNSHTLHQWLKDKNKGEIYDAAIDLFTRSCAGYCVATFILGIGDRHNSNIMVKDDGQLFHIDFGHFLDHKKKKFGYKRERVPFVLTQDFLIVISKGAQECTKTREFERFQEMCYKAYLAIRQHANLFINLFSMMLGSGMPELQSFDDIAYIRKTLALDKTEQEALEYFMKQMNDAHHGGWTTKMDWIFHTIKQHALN
T4 sequence (P27986 whole entry partner): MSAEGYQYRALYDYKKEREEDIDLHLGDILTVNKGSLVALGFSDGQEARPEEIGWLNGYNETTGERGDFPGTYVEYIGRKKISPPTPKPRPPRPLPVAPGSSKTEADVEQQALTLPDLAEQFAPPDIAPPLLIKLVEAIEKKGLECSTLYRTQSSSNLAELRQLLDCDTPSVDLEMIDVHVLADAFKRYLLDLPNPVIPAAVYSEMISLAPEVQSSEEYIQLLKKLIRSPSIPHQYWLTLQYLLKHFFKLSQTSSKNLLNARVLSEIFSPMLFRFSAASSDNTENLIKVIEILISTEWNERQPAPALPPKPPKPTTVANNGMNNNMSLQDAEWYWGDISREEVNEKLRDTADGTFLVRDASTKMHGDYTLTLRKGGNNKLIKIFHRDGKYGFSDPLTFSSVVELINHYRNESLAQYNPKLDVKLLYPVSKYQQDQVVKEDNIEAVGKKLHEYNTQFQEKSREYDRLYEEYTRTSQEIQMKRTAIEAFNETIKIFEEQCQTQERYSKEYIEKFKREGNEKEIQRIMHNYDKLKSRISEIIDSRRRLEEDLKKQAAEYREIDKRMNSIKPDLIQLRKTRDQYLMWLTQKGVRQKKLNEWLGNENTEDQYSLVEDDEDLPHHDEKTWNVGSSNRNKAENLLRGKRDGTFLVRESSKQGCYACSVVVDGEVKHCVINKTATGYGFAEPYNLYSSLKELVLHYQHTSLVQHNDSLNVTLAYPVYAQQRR
T1 sequence (O00329 whole entry): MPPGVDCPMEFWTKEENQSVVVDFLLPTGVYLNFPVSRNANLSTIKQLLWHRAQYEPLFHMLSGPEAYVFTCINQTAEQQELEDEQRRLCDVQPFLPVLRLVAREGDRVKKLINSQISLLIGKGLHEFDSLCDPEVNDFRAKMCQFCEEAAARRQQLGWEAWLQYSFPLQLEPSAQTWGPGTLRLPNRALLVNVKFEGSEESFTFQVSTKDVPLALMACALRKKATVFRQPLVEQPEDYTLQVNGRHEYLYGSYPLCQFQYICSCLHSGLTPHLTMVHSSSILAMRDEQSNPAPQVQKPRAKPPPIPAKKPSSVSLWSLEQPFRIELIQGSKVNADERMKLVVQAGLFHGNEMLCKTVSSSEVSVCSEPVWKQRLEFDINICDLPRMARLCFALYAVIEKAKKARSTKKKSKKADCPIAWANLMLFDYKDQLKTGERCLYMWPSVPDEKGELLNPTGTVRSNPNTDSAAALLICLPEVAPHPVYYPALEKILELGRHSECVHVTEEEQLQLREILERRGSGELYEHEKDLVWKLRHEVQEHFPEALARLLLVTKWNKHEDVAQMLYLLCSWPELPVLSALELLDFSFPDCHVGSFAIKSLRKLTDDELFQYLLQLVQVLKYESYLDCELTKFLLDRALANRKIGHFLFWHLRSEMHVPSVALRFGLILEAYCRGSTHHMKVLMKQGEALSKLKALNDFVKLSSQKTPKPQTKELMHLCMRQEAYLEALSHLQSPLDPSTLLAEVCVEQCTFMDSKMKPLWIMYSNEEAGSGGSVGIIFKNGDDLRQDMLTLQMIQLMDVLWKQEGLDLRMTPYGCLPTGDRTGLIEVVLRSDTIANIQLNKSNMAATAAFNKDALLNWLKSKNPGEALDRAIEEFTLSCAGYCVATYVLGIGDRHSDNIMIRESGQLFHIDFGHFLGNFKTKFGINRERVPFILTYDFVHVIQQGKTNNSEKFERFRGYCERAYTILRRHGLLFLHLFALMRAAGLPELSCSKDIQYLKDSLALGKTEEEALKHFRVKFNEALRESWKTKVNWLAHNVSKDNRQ
T1 sequence (P27986 whole entry partner): as the sequence (P27986 whole entry partner) above
T3 sequence (P42338 whole entry): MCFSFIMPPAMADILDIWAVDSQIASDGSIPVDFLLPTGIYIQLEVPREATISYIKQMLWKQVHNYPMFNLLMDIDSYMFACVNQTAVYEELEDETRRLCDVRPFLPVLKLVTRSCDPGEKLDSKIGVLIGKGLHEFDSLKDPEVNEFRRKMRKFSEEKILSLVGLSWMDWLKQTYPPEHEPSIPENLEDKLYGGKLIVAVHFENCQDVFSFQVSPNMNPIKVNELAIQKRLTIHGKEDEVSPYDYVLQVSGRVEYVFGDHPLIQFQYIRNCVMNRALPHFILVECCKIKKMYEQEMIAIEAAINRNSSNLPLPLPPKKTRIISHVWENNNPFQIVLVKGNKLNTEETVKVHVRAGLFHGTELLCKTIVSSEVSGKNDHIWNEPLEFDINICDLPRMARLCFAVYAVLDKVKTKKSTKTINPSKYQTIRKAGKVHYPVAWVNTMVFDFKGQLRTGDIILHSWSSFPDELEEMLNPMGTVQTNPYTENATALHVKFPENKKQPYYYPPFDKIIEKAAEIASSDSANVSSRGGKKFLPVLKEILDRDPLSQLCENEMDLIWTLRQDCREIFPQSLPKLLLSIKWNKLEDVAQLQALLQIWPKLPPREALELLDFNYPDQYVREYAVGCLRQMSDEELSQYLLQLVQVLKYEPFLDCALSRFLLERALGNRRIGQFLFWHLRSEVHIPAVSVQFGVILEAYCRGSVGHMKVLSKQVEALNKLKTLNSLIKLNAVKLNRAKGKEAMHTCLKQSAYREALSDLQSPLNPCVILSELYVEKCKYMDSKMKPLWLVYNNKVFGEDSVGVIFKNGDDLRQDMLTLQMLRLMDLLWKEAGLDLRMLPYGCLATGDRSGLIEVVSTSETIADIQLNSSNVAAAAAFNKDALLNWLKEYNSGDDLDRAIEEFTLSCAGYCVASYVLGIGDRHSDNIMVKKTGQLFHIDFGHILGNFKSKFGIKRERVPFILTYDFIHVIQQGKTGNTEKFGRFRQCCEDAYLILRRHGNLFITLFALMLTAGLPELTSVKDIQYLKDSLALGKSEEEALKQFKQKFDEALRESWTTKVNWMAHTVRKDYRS
T3 sequence (P27986 2-724 partner limits assumed): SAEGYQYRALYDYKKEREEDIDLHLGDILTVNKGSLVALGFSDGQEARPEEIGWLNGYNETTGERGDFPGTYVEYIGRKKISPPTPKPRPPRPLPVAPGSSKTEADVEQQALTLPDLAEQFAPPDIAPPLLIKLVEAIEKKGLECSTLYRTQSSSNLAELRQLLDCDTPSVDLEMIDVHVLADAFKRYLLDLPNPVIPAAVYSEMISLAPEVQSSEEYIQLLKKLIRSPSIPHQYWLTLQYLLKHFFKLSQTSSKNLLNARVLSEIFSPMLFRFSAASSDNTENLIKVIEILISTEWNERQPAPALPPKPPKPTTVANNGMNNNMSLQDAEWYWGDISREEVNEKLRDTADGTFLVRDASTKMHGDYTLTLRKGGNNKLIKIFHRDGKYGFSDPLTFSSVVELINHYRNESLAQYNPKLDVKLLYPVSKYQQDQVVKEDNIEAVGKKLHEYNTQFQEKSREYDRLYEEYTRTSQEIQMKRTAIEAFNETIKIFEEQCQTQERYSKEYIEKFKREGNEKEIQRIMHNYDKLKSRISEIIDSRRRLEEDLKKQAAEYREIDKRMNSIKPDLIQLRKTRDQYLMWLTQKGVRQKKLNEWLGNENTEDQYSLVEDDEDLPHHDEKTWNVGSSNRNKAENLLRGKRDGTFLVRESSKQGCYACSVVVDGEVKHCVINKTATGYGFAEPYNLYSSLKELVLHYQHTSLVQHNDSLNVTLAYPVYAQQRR

Compound: Cc1nc2c(N[C@@H](C)c3cc4cccc(Cl)c4c(=O)n3-c3cccc(F)c3)ncnc2s1 [Compound 78]
- pIC50 (PI3Kδ): 5.00 to 6.00

Compound: C[C@H](Nc1ncnc2scnc12)c1cc2cccc(-c3cnc4c(c3)CCCC4)c2c(=O)n1-c1ccccc1 [Compound 59]
- pIC50 (PI3Kδ): 5.00 to 6.00
- pIC50 (PI3Kγ): 5.00 to 6.00
- pEC50 (Balb/c splenic B cells; Between 1 μM and 10 μM): 5.00 to 6.00

Compound: CC(C)n1c([C@H](C)Nc2ncnc3scnc23)cc2cccc(-c3ccc(=O)n(C)c3)c2c1=O [Compound 103]
- pIC50 [1, 7]: 6.00 to 7.00
- pIC50 (PI3Kβ): 5.00 to 6.00
- pIC50 [2, 7]: 6.00 to 7.00
- pIC50 [3, 7]: 6.00 to 7.00
- pIC50 (PI3Kα): 5.00 to 6.00
- pIC50 [4]: > 7.00

Compound: O=C(O)CCCc1ccc(N(CCCl)CCCl)cc1 [chlorambucil]
- chemical stability [5]: largely hydrolyzed over the course of 24 hours

Compound: CO[C@H]1C[C@@H]2CC[C@@H](C)[C@@](O)(O2)C(=O)C(=O)N2CCCC[C@H]2C(=O)O[C@H]([C@H](C)C[C@@H]2CC[C@@H](OCCO)[C@H](OC)C2)CC(=O)[C@H](C)/C=C(\C)[C@@H](O)[C@@H](OC)C(=O)[C@H](C)C[C@H](C)/C=C/C=C/C=C/1C [RAD001, everolimus]
- lupus symptoms (B6.Sle1z.Sle3z model): ameliorate lupus symptoms

Compound: COc1ncc(-c2cccc3cc([C@H](C)Nc4ncnc5scnc45)n(-c4ccon4)c(=O)c23)cn1 [Compound 106]
- pIC50 [1]: 5.00 to 6.00
- pIC50 (PI3Kβ): 5.00 to 6.00
- pIC50 [2, 7]: 6.00 to 7.00
- pIC50 [3, 7]: 6.00 to 7.00
- pIC50 (PI3Kα): 5.00 to 6.00
- pIC50 [4]: > 7.00

Compound: Cc1sc2ncnc(N[C@@H](C)c3cc4cccc(Cl)c4c(=O)n3-c3ccccc3)c2c1C [Compound 97]
- pIC50 (PI3Kγ): 5.00 to 6.00
- pEC50 (Balb/c splenic B cells; Between 1 μM and 10 μM): 5.00 to 6.00

Compound: Cc1nc2c(N[C@@H](C)c3cc4cccc(-c5cnn(C)c5)c4c(=O)n3-c3ccccc3)ncnc2s1 [Compound 79]
- pIC50 (PI3Kδ): 5.00 to 6.00
- pIC50 (PI3Kγ): 5.00 to 6.00

Compound: CC(C)[N+](C)(CCOC(=O)C1c2ccccc2Oc2ccccc21)C(C)C [propantheline]
- plasma stability [6]: intermediate plasma stability

Compound: C[C@H](Nc1ncnc2scnc12)c1cc2cccc(C(=O)O)c2c(=O)n1-c1ccccc1 [Compound 84]
- pIC50 (PI3Kδ): 5.00 to 6.00
- pIC50 (PI3Kγ): 5.00 to 6.00
- pEC50 (Balb/c splenic B cells; Between 100 nM and 1 μM): 6.00 to 7.00

Compound: COc1ncc(-c2cccc3cc([C@H](C)Nc4ncnc5scnc45)n(-c4ccccc4)c(=O)c23)cn1 [Compound 38]
- pIC50 [1, 7]: 6.00 to 7.00
- pIC50 (PI3Kβ): 5.00 to 6.00
- pIC50 [2]: 5.00 to 6.00
- pIC50 [3]: 5.00 to 6.00
- pIC50 (PI3Kα): 5.00 to 6.00
- pIC50 [4]: > 7.00
- pEC50 (Balb/c splenic B cells; Less than 100 nanoMolar): > 7.00

Compound: Cc1nsc2cc(C(C)Nc3ncnc4scnc34)n(-c3ccccc3)c(=O)c12 (stereo not shown) [Compound 12]
- pIC50 (PI3Kγ): 5.00 to 6.00
- pIC50 (PI3Kβ): 5.00 to 6.00
- pEC50 (Balb/c splenic B cells; Less than 100 nanoMolar): > 7.00

Compound: C[C@H](Nc1ncnc2scnc12)c1cc2cccc(C(=O)N3CCOCC3)c2c(=O)n1-c1ccccc1 [Compound 86]
- pIC50 (PI3Kγ): 5.00 to 6.00

Compound: CC(C)C[C@H](NC(=O)[C@H](Cc1ccccc1)NC(=O)c1cnccn1)B(O)O [Bortezimib, bortezomib]
- disease in NZB/W model (NZB/W model): effective at blocking disease

Compound: CCCOc1cc(N)ccc1C(=O)OCCN(CC)CC [propoxycaine]
- plasma stability [6]: low plasma stability

Compound: C[C@H](Nc1ncnc2scnc12)c1cc2cccc(-c3cnn(C)c3)c2c(=O)n1C [Compound 82]
- pIC50 (PI3Kγ): 5.00 to 6.00
- pIC50 (PI3Kβ): 5.00 to 6.00
- pIC50 (PI3Kα): 5.00 to 6.00
- pEC50 (Balb/c splenic B cells; Between 100 nM and 1 μM): 6.00 to 7.00

Compound: C[C@H](Nc1ncnc2scnc12)c1cc2cccc(-c3cnn(C)c3)c2c(=O)n1-c1ccccc1 [Compound 5]
- pIC50 [1]: > 7.00
- pIC50 (PI3Kβ): 5.00 to 6.00
- pIC50 [2, 7]: 6.00 to 7.00
- pIC50 [3]: 5.00 to 6.00
- pIC50 [4]: > 7.00
- pEC50 (Balb/c splenic B cells; Less than 100 nanoMolar): > 7.00
